Test [1] has as its system Vero. Kind of test: cells. The test is classed as functional, cell-based. As to conditions: Chlorocebus sabaeus.
Test [2] relates to Streptococcus sp. 'group A'. Briefly: Streptococcus pyogenes SK(-)GAS viability under kanamycin – luminescence, BacTiterGlo, confirmation, counter-screen for streptokinase expression inhibitor project, dose response (AID 1900). The test is classed as functional, organism-based.
A further test concerns the target Beta-galactosidase (Escherichia coli, UniProt Q8VNN2). Briefly: PubChem AID 485352. Format: functional.
Another test has as its target T1, Streptokinase A (Streptococcus pyogenes serotype M1, UniProt P10520).
T1 sequence (P10520 whole entry): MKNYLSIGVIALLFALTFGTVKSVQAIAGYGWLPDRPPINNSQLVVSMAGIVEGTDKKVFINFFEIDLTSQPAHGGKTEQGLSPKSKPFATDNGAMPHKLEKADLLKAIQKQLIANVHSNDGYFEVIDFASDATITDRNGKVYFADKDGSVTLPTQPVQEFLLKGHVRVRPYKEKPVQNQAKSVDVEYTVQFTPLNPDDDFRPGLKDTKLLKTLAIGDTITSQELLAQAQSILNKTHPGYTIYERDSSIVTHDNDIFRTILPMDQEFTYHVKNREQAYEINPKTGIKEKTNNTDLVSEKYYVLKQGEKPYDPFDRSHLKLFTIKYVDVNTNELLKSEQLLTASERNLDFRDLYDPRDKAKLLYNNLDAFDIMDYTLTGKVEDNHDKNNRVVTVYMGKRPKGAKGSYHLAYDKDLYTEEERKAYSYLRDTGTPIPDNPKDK
Kind of test: viability-normalized secreted streptokinase activity reduction – plasminogen activation absorbance, OD405, dose response (AID 1914).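 Also: secreted streptokinase activity via plasminogen activation per viability signal from cell pellet.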 The test is classed as functional, Streptococcus pyogenes M1 GAS.

The nature of test [3]: Trypanosoma cruzi growth suppression in host cells – NIH3T3 host cells, beta-gal luminescence, confirmation (AID 2044).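 Also: intracellular parasites grown in NIH/3T3 mouse fibroblasts as host cells; luminescent beta-galactosidase reporter signal from transgenic T. cruzi replicating inside host cells; inhibitors lower the luminescence signal.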 Format: functional, cell-based.
Test [4] concerns the target T2, Type-1 angiotensin II receptor (Homo sapiens, UniProt P30556).
T2 sequence (P30556 whole entry): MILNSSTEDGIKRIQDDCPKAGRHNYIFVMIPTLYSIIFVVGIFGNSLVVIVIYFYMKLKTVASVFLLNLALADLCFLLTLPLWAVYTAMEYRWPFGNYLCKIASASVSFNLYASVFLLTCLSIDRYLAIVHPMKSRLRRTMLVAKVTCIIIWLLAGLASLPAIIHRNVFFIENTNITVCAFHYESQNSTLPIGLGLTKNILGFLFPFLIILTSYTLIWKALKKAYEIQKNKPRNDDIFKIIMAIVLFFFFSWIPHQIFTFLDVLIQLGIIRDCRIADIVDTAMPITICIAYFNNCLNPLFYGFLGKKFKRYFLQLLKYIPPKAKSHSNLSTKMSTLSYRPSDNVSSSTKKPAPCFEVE
Kind of test: antagonism of angiotensin II type 1 receptor – cell-based, uHTS hits, selectivity assay for APJ receptor antagonist project, dose response (AID 463214).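 Also: antagonist potency against angiotensin II stimulated AT1 response.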 The test is classed as functional.

Test [5] is described as follows: NIH3T3 cell viability loss – ATP luminescence, mouse fibroblasts, counter-screen, dose response (AID 2010).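 Also: cells exposed to compound for about 90 hours before reading.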 The test is classed as functional, cell-based.
The subject of the next test is Streptococcus. Briefly: GAS UMAA2166 growth inhibition – luminescence, BacTiterGlo, counter-screen for streptokinase expression inhibitor project, dose response (AID 1915).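 Also: potency for reduction of bacterial viability or growth.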 The test is classed as functional, organism-based.
Test [6] concerns the target Glucose-6-phosphate 1-dehydrogenase (Homo sapiens, UniProt P11413). Kind of test: inhibition of Homo sapiens G6PD, dose series – biochemical, fluorescence, selectivity assay for P. falciparum G6PD inhibitor project, dose response (AID 504792). Format: functional.
Test [7] has as its system Vero. Briefly: viability of Vero cells under compound – cytotoxicity control for flavivirus capping enzyme inhibitors (AID 588742). As to conditions: Chlorocebus sabaeus. Format: functional.
Another test concerns the target Genome polyprotein (dengue virus type 2, UniProt P29990). Briefly: flavivirus cap methylation enzyme inhibition – biochemical, confirmation dose response, primary screen (AID 588689). The test is classed as functional.
Test [8] in a line: reduction of Shn3 3'UTR-driven luciferase in osteoblasts – cell-based, Clone20 osteoblasts, firefly luciferase, cherry-picked, dose response (AID 624132).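 Also: firefly luciferase luminescence from reporter carrying the Shn3 3'UTR in osteoblasts.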 Format: functional.
Test [9] in a line: loss of viability in HepG2 cells – cell-based, CellTiter-Glo, cherry-picked, cytotoxicity control for Shn3 inhibitor project, dose response (AID 624134). The test is classed as functional.
Test [10] is described as follows: non-specific 3'UTR reporter inhibition in Clone20-Shn3RL – cell-based, Renilla luciferase, cherry-picked, counter-screen for Shn3 inhibitor project, dose response (AID 624133). The test is classed as functional.
In test [11] the target is T3, Fatty acid synthase (Homo sapiens, UniProt P49327). Briefly: inhibition of human FAS-TE enzyme activity – biochemical, endpoint fluorescence intensity, uHTS hits, dose response (AID 624327).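 Also: fluorescence from hydrolysis of an O-methyl fluorescein acyl ester substrate by the enzyme.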 The test is classed as functional.
T3 sequence (P49327 whole entry): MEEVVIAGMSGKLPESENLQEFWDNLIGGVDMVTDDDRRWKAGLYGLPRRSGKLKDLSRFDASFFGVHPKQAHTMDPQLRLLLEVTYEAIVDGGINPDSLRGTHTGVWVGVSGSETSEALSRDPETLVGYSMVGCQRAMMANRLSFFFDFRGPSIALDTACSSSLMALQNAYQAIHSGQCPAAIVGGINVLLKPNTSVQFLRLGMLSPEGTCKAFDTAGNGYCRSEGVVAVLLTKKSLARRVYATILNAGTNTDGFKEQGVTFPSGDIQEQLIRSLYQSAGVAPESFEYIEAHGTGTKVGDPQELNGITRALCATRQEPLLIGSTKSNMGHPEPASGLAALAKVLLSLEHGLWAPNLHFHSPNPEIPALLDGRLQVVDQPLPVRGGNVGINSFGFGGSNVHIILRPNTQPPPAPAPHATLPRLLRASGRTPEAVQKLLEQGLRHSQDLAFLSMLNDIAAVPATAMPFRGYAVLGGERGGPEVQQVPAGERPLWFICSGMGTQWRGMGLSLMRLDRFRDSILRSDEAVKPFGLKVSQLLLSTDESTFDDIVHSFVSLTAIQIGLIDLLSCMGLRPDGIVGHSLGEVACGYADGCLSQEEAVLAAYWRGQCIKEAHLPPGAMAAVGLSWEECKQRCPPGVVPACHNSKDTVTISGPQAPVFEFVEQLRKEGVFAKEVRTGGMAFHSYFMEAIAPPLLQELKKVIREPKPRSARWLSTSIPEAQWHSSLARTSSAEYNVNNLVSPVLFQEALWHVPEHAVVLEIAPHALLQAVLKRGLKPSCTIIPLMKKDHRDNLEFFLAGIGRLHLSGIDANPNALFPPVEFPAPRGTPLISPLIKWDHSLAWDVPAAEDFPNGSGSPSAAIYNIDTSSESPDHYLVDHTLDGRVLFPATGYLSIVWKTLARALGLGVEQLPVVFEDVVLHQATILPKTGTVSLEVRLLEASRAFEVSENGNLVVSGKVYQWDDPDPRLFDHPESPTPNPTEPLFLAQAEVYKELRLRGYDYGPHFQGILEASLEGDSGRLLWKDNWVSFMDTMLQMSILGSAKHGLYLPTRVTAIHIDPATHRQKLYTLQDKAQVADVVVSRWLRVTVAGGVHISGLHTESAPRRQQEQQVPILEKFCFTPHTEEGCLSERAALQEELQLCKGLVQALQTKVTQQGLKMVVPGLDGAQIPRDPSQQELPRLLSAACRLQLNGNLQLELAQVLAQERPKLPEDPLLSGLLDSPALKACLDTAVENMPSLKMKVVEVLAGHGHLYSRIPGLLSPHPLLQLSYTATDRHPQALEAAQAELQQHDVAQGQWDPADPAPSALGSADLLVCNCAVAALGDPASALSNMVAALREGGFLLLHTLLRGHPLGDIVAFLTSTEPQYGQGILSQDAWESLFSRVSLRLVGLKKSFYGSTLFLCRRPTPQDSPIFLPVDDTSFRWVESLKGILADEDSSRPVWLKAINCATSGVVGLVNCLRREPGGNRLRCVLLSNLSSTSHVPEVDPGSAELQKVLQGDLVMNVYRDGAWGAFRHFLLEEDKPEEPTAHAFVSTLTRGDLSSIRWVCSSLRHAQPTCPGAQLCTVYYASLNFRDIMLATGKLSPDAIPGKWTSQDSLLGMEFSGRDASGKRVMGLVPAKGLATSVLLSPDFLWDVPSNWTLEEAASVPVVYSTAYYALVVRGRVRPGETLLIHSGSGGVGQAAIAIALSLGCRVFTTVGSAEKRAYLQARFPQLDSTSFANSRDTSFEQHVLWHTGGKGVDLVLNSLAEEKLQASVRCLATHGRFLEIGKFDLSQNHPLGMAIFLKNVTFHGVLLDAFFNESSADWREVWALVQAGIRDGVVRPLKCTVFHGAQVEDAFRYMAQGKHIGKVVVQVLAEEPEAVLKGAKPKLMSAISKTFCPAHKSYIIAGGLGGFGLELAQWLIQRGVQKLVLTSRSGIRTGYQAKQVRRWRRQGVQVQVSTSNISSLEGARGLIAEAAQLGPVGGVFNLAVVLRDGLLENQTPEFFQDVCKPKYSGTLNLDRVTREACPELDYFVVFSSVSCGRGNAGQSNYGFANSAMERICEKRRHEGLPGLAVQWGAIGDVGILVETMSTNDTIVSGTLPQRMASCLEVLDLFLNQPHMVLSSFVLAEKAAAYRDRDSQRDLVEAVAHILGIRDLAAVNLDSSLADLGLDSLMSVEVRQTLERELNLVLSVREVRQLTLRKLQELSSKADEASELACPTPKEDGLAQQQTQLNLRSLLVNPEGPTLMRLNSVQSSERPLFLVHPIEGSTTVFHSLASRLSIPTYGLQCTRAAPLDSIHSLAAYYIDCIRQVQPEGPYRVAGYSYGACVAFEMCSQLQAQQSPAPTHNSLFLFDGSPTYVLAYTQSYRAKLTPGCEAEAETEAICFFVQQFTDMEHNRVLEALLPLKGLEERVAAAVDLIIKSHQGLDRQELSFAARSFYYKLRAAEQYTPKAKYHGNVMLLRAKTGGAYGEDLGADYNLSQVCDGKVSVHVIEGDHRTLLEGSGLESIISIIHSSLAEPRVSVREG
The target in test [12] is T3, Fatty acid synthase. Kind of test: inhibition of human FAS-TE enzyme activity – biochemical, kinetic fluorescence intensity, dose response (AID 624326).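 Also: rate of fluorescence rise from hydrolysis of a fluorogenic O-methyl fluorescein ester substrate.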 The test is classed as functional.
Test [13] has as its system HEK293. Kind of test: inhibition of NOD1-driven NF-kB reporter – cell-based, luminescence, uHTS, primary screen (AID 1578). Format: functional. As to conditions: Homo sapiens.
The test system of test [14] is HEK293. Briefly: cells. The settings on record: Homo sapiens. Format: functional, cell-based.
Test [15] is described as follows: A Cell Based Secondary Assay To Explore Cytotoxicity of Compounds that Sensitize Mycobacterium Tuberculosis to Beta-Lactam Antibiotics. The test is classed as functional.
Test [16] has as its system Vero. Briefly: mammalian cell viability reduction – secondary assay, cytotoxicity control for West Nile virus antiviral project, dose response (AID 1650). The test is classed as functional. The settings on record: Chlorocebus sabaeus.
Test [17] concerns HEK293. Briefly: cells. Format: functional, cell-based. As to conditions: Homo sapiens. This is another data set of the same source.
Test [18] has as its system HEK293. Briefly: NOD2 signaling inhibitors in MDP-stimulated cells, cell-based, uHTS, luminescence (AID 2001). The test is classed as functional. As to conditions: Homo sapiens.
Test [19] relates to Vero. Briefly: cells. The test is classed as functional. The settings on record: Chlorocebus sabaeus.
The subject of test [20] is HEK293. Kind of test: HEK293T cell viability loss, resazurin readout – resazurin fluorescence, cytotoxicity control for NF-kB activator project, SAR follow-up (AID 493251). The test is classed as functional, cell-based. As to conditions: Homo sapiens.

The source made the active and inactive calls. Some results are limits rather than exact numbers.

Sequence of Beta-galactosidase (Q8VNN2 whole entry): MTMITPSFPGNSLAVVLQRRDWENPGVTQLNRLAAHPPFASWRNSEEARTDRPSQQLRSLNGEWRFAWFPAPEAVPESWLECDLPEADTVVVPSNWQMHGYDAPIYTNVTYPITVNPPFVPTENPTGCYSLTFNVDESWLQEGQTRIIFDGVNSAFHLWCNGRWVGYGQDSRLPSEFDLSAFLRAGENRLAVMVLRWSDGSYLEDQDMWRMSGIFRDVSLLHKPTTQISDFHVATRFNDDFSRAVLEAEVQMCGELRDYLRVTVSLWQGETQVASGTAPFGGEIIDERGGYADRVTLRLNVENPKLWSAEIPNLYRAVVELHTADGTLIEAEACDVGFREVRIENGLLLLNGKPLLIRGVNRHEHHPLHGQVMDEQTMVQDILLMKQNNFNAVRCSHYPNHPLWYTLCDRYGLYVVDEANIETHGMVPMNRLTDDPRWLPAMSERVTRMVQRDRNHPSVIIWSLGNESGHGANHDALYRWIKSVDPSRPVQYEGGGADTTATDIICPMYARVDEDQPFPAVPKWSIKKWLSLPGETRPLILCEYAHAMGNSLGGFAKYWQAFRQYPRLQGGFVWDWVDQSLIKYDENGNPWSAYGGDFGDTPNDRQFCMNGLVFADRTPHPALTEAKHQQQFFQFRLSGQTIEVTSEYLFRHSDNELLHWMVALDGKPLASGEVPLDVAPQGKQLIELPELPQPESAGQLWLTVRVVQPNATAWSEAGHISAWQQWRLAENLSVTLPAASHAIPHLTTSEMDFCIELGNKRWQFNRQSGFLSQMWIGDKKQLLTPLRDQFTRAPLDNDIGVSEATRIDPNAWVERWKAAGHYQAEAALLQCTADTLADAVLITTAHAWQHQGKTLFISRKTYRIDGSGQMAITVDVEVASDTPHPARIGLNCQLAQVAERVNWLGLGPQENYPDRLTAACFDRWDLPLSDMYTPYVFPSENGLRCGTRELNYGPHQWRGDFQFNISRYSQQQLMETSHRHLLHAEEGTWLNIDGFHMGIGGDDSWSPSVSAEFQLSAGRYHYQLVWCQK
Sequence of Genome polyprotein (P29990 2492-3391 limits assumed): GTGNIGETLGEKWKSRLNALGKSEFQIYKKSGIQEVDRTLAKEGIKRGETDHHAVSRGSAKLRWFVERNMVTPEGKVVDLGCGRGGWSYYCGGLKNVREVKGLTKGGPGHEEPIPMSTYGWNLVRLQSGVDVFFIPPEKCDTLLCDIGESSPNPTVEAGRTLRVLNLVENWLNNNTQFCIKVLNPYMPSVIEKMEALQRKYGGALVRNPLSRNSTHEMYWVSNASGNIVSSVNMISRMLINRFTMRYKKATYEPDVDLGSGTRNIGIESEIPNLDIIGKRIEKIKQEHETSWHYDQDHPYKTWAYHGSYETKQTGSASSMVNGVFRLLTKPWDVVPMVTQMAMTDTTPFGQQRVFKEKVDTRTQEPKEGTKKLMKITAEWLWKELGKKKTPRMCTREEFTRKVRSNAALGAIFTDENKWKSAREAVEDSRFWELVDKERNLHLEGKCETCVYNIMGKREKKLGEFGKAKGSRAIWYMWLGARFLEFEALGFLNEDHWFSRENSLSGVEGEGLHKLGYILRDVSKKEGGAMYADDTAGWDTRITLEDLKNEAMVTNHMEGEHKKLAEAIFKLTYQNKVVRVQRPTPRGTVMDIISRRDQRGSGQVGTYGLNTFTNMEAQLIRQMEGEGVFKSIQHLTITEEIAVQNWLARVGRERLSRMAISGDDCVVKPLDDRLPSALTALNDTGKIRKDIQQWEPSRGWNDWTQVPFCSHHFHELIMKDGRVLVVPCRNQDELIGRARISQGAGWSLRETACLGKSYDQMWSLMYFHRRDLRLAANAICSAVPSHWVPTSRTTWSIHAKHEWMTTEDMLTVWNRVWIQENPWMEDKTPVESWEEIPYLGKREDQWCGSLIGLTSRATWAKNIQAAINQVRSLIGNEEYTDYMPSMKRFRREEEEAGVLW
Sequence of Glucose-6-phosphate 1-dehydrogenase (P11413 whole entry): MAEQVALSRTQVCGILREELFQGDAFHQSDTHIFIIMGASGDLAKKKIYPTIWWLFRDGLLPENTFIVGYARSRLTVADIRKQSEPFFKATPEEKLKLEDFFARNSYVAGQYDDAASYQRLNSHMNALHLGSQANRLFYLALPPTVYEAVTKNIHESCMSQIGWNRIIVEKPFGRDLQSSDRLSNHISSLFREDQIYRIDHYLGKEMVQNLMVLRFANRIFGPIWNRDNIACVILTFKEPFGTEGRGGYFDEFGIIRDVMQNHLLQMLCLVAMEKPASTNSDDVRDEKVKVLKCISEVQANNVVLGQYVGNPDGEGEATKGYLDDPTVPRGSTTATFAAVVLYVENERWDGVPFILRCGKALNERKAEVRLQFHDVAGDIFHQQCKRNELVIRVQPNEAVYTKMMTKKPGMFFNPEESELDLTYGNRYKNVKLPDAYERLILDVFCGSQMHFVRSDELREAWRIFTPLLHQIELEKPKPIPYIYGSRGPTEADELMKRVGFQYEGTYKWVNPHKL

Consider `CC(C)(C)c1ccc(C(=O)NC(=S)Nc2sc3c(c2C#N)CCC3)cc1`, for which the IC50 in the test on Vero [1] was > 25 µM (active).
`CC(=O)OCCCNc1cc(Sc2nc3ccccc3s2)c2nonc2c1[N+](=O)[O-]`: the EC50 in test [2] was 3.26 µM (active); at Beta-galactosidase, > 40 µM (inactive); on Streptokinase A it was > 150 µM (not active); in [3], 1.38 µM (active); in test [5], 4.76 µM (active); with Streptococcus, 3.7 µM (active). Also, the IC50 in [4] was 2.06 µM (active); in test [6], > 80 µM (inactive); on Genome polyprotein it was > 100 µM (active); on Fatty acid synthase [11], 2.08 µM (active); at Fatty acid synthase [12], 1.35 µM (active). For the same compound, in the test with Vero [7], the CC50 is 16.8 µM (active). In addition, the AC50 in test [8] is 4.7 µM (active); in [9], 24.4 µM (active); in test [10], 11.3 µM (active).
For the compound `Cn1c(/C=C/c2ccc(Cl)cc2)c([N+](=O)[O-])c(=O)n(C)c1=O`, the EC50 with HEK293 [13] was 16 µM (active). Also, the IC50 is 8.13 µM (active) with HEK293 [14], > 20 µM (inactive) in the test with HEK293 [17], 8.84 µM (active) in the test with HEK293 [18] and > 25 µM (active) in the test on Vero [1]. Further, the CC50 in [15] is 30 µM (active); in the test with Vero [16], 15.7 µM (active); in the test with Vero [19], 19.1 µM (active).
For the compound `COc1ccc(-c2nc(CSCC(=O)NC3CC3)c(C)o2)cc1`, the IC50 in the test with HEK293 [20] is > 80 µM (inactive).

For the origin of these results see ChEMBL document CHEMBL1201862, “PubChem BioAssay data set” (2004).
